According to patent US10072003B2, “Tetrahydronaphthyridine derivatives as mGluR2-negative allosteric modulators, compositions, and their use” (Merck Sharp & Dohme Corp., priority 2014, dated 2018):

Target: recombinant human mGluR2 (Homo sapiens (Human), UniProt Q14416)
Test: FLIPR Ca2+ mobilization antagonist assay in CHO dhfr- cells expressing human mGluR2 and Gα16
Format: cell-based
Details: antagonist response after addition of 2,500 nM glutamate, Fluo-4 AM, FLIPR384
How it was run: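 CHO dhfr- cells stably co-expressing human mGluR2 and Gα16, Fluo-4 AM loaded, preincubated with compound, then challenged with 2,500 nM glutamate; Ca2+ response read by FLIPR. Maximum calcium response vs concentration fitted to four-parameter logistic for IC50.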

Chain of recombinant human mGluR2 (Q14416 19-872): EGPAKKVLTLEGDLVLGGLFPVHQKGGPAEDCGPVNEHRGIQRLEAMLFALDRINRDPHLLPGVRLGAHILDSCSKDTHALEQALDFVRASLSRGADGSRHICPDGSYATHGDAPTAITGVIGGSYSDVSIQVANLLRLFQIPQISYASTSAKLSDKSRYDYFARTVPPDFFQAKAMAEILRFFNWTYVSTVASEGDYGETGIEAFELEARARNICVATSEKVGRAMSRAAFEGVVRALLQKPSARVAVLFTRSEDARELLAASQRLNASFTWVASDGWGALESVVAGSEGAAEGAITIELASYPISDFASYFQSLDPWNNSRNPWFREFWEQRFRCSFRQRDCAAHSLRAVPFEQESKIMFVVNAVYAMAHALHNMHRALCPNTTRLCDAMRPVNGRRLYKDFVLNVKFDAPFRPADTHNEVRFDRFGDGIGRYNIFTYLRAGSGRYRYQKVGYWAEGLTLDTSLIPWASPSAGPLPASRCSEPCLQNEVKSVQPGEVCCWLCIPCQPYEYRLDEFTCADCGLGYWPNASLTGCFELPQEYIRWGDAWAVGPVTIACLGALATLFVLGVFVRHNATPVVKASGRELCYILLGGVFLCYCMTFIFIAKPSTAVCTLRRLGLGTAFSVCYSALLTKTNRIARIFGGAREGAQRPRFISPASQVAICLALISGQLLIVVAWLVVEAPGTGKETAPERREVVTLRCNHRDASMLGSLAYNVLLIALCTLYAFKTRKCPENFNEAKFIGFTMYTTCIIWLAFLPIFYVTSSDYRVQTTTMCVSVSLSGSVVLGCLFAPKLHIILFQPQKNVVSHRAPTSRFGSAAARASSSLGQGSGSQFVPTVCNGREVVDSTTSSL

Row | SMILES | IC50 [nM]
1 | NC(=O)c1cc(-c2ccc(F)cc2Cl)c2c(n1)CN(Cc1ccnc(C(F)(F)F)n1)CC2 [Example 11-5, 4-(2-chloro-4-fluorophenyl)-7-{[2-(trifluoromethyl)pyrimidin-4-yl]methyl}-5,6,7,8-tetrahydro-1,7-naphthyridine-2-carboxamide] | 17.6
2 | NC(=O)c1cc(-c2c(F)cc(F)cc2F)c2c(n1)CN(Cc1ccnc(C(F)(F)F)n1)CC2 [Example 11-6, 7-{[2-(trifluoromethyl)pyrimidin-4-yl]methyl}-4-(2,4,6-trifluorophenyl)-5,6,7,8-tetrahydro-1,7-naphthyridine-2-carboxamide] | 13.2
3 | NC(=O)c1cc(-c2c(F)cccc2Cl)c2c(n1)CN(Cc1ccnc(C(F)(F)F)n1)CC2 [Example 11-7, 4-(2-chloro-6-fluorophenyl)-7-{[2-(trifluoromethyl)pyrimidin-4-yl]methyl}-5,6,7,8-tetrahydro-1,7-naphthyridine-2-carboxamide] | 45.2
4 | NC(=O)c1cc(-c2c(F)cc(F)cc2F)c2c(n1)CN(Cc1cc(C(F)(F)F)ncn1)CC2 [Example 11-11, 7-{[6-(trifluoromethyl)pyrimidin-4-yl]methyl}-4-(2,4,6-trifluorophenyl)-5,6,7,8-tetrahydro-1,7-naphthyridine-2-carboxamide] | 26.1
5 | NC(=O)c1cc(N2CCC(F)(F)CC2)c2c(n1)CN(Cc1ccnc(C(F)(F)F)n1)CC2 [Example 12-1, 4-(4,4-difluoropiperidin-1-yl)-7-((2-(trifluoromethyl)pyrimidin-4-yl)methyl)-5,6,7,8-tetrahydro-1,7-naphthyridine-2-carboxamide] | 40.9
6 | NC(=O)c1cc(N2CCC3(CC2)CC3)c2c(n1)CN(Cc1ccnc(C(F)(F)F)n1)CC2 [Example 12-2, 4-(6-azaspiro[2.5]oct-6-yl)-7-{[2-(trifluoromethyl)pyrimidin-4-yl]methyl}-5,6,7,8-tetrahydro-1,7-naphthyridine-2-carboxamide] | 13.1
7 | NC(=O)c1cc(-n2cc(Cl)cn2)c2c(n1)CN(Cc1ccnc(C(F)(F)F)n1)CC2 [Example 12-3, 4-(4-chloro-1H-pyrazol-1-yl)-7-{[2-(trifluoromethyl)pyrimidin-4-yl]methyl}-5,6,7,8-tetrahydro-1,7-naphthyridine-2-carboxamide] | 93.2
8 | NC(=O)c1cc(N2CCC(F)(F)CC2)c2c(n1)CN(Cc1cc(C(F)(F)F)ncn1)CC2 [Example 12-4, 4-(4,4-difluoropiperidin-1-yl)-7-{[6-(trifluoromethyl)pyrimidin-4-yl]methyl}-5,6,7,8-tetrahydro-1,7-naphthyridine-2-carboxamide] | 35.9
9 | NC(=O)c1cc(N2CCC3(CC2)CC3)c2c(n1)CN(Cc1cc(C(F)(F)F)ncn1)CC2 [Example 12-5, 4-(6-azaspiro[2.5]oct-6-yl)-7-{[6-(trifluoromethyl)pyrimidin-4-yl]methyl}-5,6,7,8-tetrahydro-1,7-naphthyridine-2-carboxamide] | 20.4
10 | COc1cc(CN2CCc3c(-c4ccc(Cl)cc4F)cc(C(N)=O)nc3C2)ccn1 [Example 13-3, 4-(4-chloro-2-fluorophenyl)-7-[(2-methoxypyridin-4-yl)methyl]-5,6,7,8-tetrahydro-1,7-naphthyridine-2-carboxamide] | 16

Molecules with a lower IC50, results first:

Row | IC50 [nM] | SMILES
11 | 11.8 | NC(=O)c1cc(-c2ccccc2F)c2c(n1)CN(Cc1ccnc(C(F)(F)F)n1)CC2 [Example 11-8, 4-(2-fluorophenyl)-7-{[2-(trifluoromethyl)pyrimidin-4-yl]methyl}-5,6,7,8-tetrahydro-1,7-naphthyridine-2-carboxamide]
12 | 10 | NC(=O)c1cc(-c2ccc(Cl)cc2F)c2c(n1)CN(Cc1cc(C(F)(F)F)ncn1)CC2 [Example 11-12, 4-(4-chloro-2-fluorophenyl)-7-{[6-(trifluoromethyl)pyrimidin-4-yl]methyl}-5,6,7,8-tetrahydro-1,7-naphthyridine-2-carboxamide]
13 | 7.8 | COc1cc(CN2CCc3c(-c4ccc(F)cc4F)cc(C(N)=O)nc3C2)ccn1 [Example 13-1, 4-(2,4-difluorophenyl)-7-((2-methoxypyridin-4-yl)methyl)-5,6,7,8-tetrahydro-1,7-naphthyridine-2-carboxamide]
14 | 7.6 | NC(=O)c1cc(-c2ccc(F)cc2)c2c(n1)CN(Cc1cc(C(F)(F)F)ncn1)CC2 [Example 11-10, 4-(4-fluorophenyl)-7-{[6-(trifluoromethyl)pyrimidin-4-yl]methyl}-5,6,7,8-tetrahydro-1,7-naphthyridine-2-carboxamide]
15 | 6.6 | COc1ccc(-c2cc(C(N)=O)nc3c2CCN(Cc2ccnc(OC)c2)C3)c(F)c1 [Example 13-2, 4-(2-fluoro-4-methoxyphenyl)-7-[(2-methoxypyridin-4-yl)methyl]-5,6,7,8-tetrahydro-1,7-naphthyridine-2-carboxamide]
16 | 6.5 | NC(=O)c1cc(-c2c(F)cc(Cl)cc2F)c2c(n1)CN(Cc1ccnc(C(F)(F)F)n1)CC2 [Example 11-9, 4-(4-chloro-2,6-difluorophenyl)-7-{[2-(trifluoromethyl)pyrimidin-4-yl]methyl}-5,6,7,8-tetrahydro-1,7-naphthyridine-2-carboxamide]
17 | 5.7 | COc1cc(CN2CCc3c(-c4ccc(F)cc4Cl)cc(C(N)=O)nc3C2)ccn1 [Example 13-4, 4-(2-chloro-4-fluorophenyl)-7-[(2-methoxypyridin-4-yl)methyl]-5,6,7,8-tetrahydro-1,7-naphthyridine-2-carboxamide]
